Assay results reported in ChEMBL document CHEMBL4840300 (J Nat Prod, 2021).

Experiments:
[1] = Downregulation of caspase-1 mRNA expression in H2O2- stimulated human HaCaT cells at 10 uM incubated for 6 hrs by SPE based fluorescence amplification assay relative to control; assay type: functional; settings: time 30 hrs
[2] = Downregulation of IL-1beta mRNA expression in H2O2- stimulated human HaCaT cells at 10 uM incubated for 6 hrs by SPE based fluorescence amplification assay relative to control; assay type: functional; settings: time 30 hrs
[3] = system: HaCaT; test: Antioxidant activity in human HaCaT cells assessed as reduction in mean fluorescence intensity at 10 uM preincubated for 6 hrs followed by H2O2 stimulation at 600 uM measured after 24 hrs by cellROS staining based flow cytometry analysis; assay type: functional; settings: time 30 hrs
[4] = biological target: T1, Caspase-1 (Homo sapiens, UniProt P29466); test: Binding affinity to recombinant human caspase-1 assessed as dissociation constant at equilibrium measured after 30 sec by SPR method
T1 sequence (P29466 whole entry): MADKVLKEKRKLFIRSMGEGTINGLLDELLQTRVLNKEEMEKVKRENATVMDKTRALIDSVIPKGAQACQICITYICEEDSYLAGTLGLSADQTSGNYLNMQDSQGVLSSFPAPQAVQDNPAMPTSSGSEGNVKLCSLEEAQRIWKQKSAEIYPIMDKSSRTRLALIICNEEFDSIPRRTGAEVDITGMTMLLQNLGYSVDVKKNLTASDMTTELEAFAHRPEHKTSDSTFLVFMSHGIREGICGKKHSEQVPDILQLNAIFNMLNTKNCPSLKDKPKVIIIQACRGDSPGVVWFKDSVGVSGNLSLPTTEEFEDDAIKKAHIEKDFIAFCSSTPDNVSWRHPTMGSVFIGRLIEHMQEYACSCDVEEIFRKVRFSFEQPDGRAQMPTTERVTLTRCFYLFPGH

[5] = system: HaCaT; test: Cytoprotective activity against H2O2-induced oxidative stress in human HaCaT cells assessed as change in cellular ROS level at 10 uM incubated for 6 hrs followed by H2O2 stimulation measured after 24 hrs by DCF-DA dye based fluorescence analysis (reference value: 8.2); assay type: functional; settings: time 30 hrs
[6] = system: HaCaT; test: Effect on cell cycle distribution in human HaCaT cells assessed as 2N cells at 10 uM pretreated for 6 hrs followed by H2O2 challenge for 24 hrs by propidium iodide staining based flow cytometry analysis (Rvb= 17.9%); assay type: functional; settings: time 30 hrs
[7] = system: HaCaT; test: Antioxidant activity in human HaCaT cells assessed as reduction in mitochondria-derived ROS production by measuring mean fluorescence intensity at 10 uM preincubated for 6 hrs followed by H2O2 stimulation at 600 uM measured after 24 hrs by mitoSOX staining based flow cytometry analysis; assay type: functional; settings: time 30 hrs
[8] = system: HaCaT; test: Antioxidant activity in human HaCaT cells assessed as reduction in mean fluorescence intensity at 10 uM preincubated for 6 hrs followed by H2O2 stimulation at 400 uM measured after 24 hrs by cellROS staining based flow cytometry analysis; assay type: functional; settings: time 30 hrs
[9] = system: HaCaT; test: Cytoprotective activity against H2O2-induced oxidative stress in human HaCaT cells assessed as change in cellular ROS level at 1 uM incubated for 6 hrs followed by H2O2 stimulation measured after 24 hrs by DCF-DA dye based fluorescence analysis (reference value: 8.2); assay type: functional; settings: time 30 hrs
[10] = biological target: T2, Caspase-1 (Homo sapiens) (UniProt P29466); test: Inhibition of caspase-1 activity in H2O2-stimulated human HaCaT cells assessed as reduction in enzyme activity at 10 uM using […] as a substrate measured after 2 hrs by colorimetric assay relative to control
T2 sequence (whole entry): T1 sequence (P29466 whole entry)

[11] = system: HaCaT; test: Effect on cell cycle distribution in human HaCaT cells assessed as accumulation of cells in G2-M phase at 10 uM pretreated for 6 hrs followed by H2O2 challenge for 24 hrs by propidium iodide staining based flow cytometry analysis relative to control; assay type: functional; settings: time 30 hrs
[12] = system: HaCaT; test: Antioxidant activity in human HaCaT cells assessed as reduction in mean fluorescence intensity at 10 uM preincubated for 6 hrs followed by H2O2 stimulation at 200 uM measured after 24 hrs by cellROS staining based flow cytometry analysis; assay type: functional; settings: time 30 hrs
[13] = system: HaCaT; test: Antioxidant activity in human HaCaT cells assessed as reduction in mitochondria-derived ROS production by measuring mean fluorescence intensity at 10 uM preincubated for 6 hrs followed by H2O2 stimulation at 400 uM measured after 24 hrs by mitoSOX staining based flow cytometry analysis; assay type: functional; settings: time 30 hrs
[14] = system: HaCaT; test: Effect on cell cycle distribution in human HaCaT cells assessed as 4N cells at 10 uM pretreated for 6 hrs followed by H2O2 challenge for 24 hrs by propidium iodide staining based flow cytometry analysis (Rvb= 41.0%); assay type: functional; settings: time 30 hrs
[15] = system: HaCaT; test: Effect on cell cycle distribution in human HaCaT cells assessed as <2N cells at 10 uM pretreated for 6 hrs followed by H2O2 challenge for 24 hrs by propidium iodide staining based flow cytometry analysis (Rvb= 1.88%); assay type: functional; settings: time 30 hrs
[16] = system: HaCaT; test: Antioxidant activity in human HaCaT cells assessed as reduction in mitochondria-derived ROS production by measuring mean fluorescence intensity at 10 uM preincubated for 6 hrs followed by H2O2 stimulation at 200 uM measured after 24 hrs by mitoSOX staining based flow cytometry analysis; assay type: functional; settings: time 30 hrs
[17] = system: HaCaT; test: Effect on cell cycle distribution in human HaCaT cells assessed as >4N cells at 10 uMpretreated for 6 hrs followed by H2O2 challenge for 24 hrs by propidium iodide staining based flow cytometry analysis (Rvb= 11.1%); assay type: functional; settings: dose 10 µM; time 30 hrs
[18] = biological target: T1, Caspase-1; test: Binding affinity to recombinant human caspase-1 assessed as dissociation constant measured after 90 sec by SPR method
[19] = system: HaCaT; test: Antiapoptotic activity in human HaCaT cells assessed as reduction in apoptotic cells at 10 uM incubated for 6 hrs followed by H2O2 stimulation measured after 24 hrs by Mitotracker red/annexin V double staining based flow cytometry analysis (Rvb= 12.1%); assay type: functional; parameters: scale not given: the % may be the effect or the level left; settings: time 30 hrs
[20] = system: HaCaT; test: Cytoprotective activity against H2O2-induced oxidative stress in human HaCaT cells assessed as increase in cell viability at 10 uM incubated for 24 hrs followed by H2O2 stimulation by celltiter-glo assay relative to control; assay type: functional
[21] = Inhibition of IL-1beta expression in H2O2- stimulated human HaCaT cells at 10 uM incubated for 6 hrs followed by H2O2 stimulation measured after 24 hrs by ELISA relative to control; assay type: functional; settings: time 30 hrs
[22] = Cytotoxicity against human HaCaT cells assessed as cell viability at 1 to 10 uM incubated for 24 hrs followed by H2O2 stimulation by celltiter-glo assay relative to control; assay type: cell-based; settings: dose 1-10 µM, read-out: Activity
[23] = system: HaCaT; test: Anti-pyroptosis activity in human HaCaT cells assessed as reduction in H2O2-induced LDH production at 10 uM incubated for 6 hrs followed by H2O2 stimulation measured after 24 hrs by LDH assay relative to control; assay type: functional; parameters: scale not given: the % may be the effect or the level left; settings: time 30 hrs
[24] = system: HaCaT; test: Anti-pyroptosis activity in human HaCaT cells assessed as reduction in H2O2-induced LDH production at 1 uM incubated for 6 hrs followed by H2O2 stimulation measured after 24 hrs by LDH assay relative to control; assay type: functional; parameters: scale not given: the % may be the effect or the level left; settings: time 30 hrs
[25] = biological target: T2, Caspase-1 (Homo sapiens); test: Binding affinity to recombinant human caspase-1 assessed as association constant measured after 60 sec by SPR method

In the case of `C=C(C)[C@@H]1CCC(C)=C[C@H]1c1c(O)cc(CCCCC)cc1O` [CANNABIDIOL], the Activity [1] is reported as 32.9%, the Activity [2] is reported as 50.9% and the Flu intensity [3] is reported as 171. The Kd [4] was 0.078 s⁻¹, the “fold change (FC)” value [5] was 5.13 and the Activity [6] was 20.5%. For the same compound, the Flu intensity [7] was 73, the Flu intensity [8] was 96 and the “fold change (FC)” value [9] was 3.96. The inhibition [10] was 15.7%, the Activity [11] was 16.7% and the Flu intensity [12] was 110. For the same compound, the Flu intensity [13] was 78, the Activity [14] was 45.9% and the Activity [15] was 1.81%. It also gave a Flu intensity [16] of 75, an Activity [17] of 4.55% and a Kd [18] of 18.8 nM. The Activity [19] was 6.36%, the Activity [20] was 48.6% and the inhibition at 10 µM [21] was 16.2%. For the same compound, the viability at 24 h, up to 10 µM [22] was over 90%, the Activity [23] was 23.6% and the Activity [24] was 20.7%. It also gave a Ka [25] of 416 M⁻¹ s⁻¹.
